In brackets after ≈: the same amount, converted by molar mass. Like-named read-outs stand apart in the source and are kept apart here. Where a SMILES comes first, the peptide text is derived from it. Where no end group is shown, it is not given here.
Columns and labels:
ClpXP [1] = target: T1, ClpXP (Escherichia coli, UniProt P0A6G7+P0A6H1); assay: ClpXP degradation of GFP-tag in the absence of SspB (Examples 1-2); type: biochemical, E. coli; conditions: for Ki: GFP-tag degradation by ClpXP; for Ki / inhibition of GFP-tag degradation by ClpXP in the absence of SspB: no SspB
T1 sequence (P0A6G7 15-207): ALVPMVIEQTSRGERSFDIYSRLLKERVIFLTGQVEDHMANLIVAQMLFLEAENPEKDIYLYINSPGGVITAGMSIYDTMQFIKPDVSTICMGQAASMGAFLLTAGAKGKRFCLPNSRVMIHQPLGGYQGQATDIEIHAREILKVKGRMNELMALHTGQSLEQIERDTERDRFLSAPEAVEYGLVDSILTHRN
T1 sequence (P0A6H1 whole entry): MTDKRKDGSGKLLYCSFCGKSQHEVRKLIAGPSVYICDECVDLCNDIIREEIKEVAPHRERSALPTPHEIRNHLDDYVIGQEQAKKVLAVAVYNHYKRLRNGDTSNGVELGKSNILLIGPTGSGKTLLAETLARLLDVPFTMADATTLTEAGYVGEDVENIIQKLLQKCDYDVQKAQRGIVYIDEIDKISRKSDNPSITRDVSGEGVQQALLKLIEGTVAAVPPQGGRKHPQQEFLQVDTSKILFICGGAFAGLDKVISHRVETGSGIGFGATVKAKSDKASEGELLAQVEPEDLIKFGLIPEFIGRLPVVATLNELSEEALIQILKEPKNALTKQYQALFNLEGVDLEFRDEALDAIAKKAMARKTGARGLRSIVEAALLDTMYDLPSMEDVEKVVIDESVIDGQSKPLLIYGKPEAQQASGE
Method: (§1) ClpXP Proteolysis: PD buffer contained 25 mM HEPES-KOH (pH 7.6), 5 mM KCl, 5 mM MgCl2, 0.032% NP-40, 5 mM ATP, and 10% glycerol. The ATP regenerating system consisted of 8 mM creatine phosphate and 0.16 mg/ml creatine kinase. Inhibition experiments were performed using a Hitachi F-2000 Fluorescence Spectrophotometer. The rate of GFP-ssrA degradation was monitored at 30° C. for 5 minutes by the loss of fluorescence (excitation 488 nm; emission 507 nm). Competition experiments with increasing concentrations of peptide were performed using GFP-ssrA (0.2 μM), ClpX6 (0.3 ArM), ClpP14 (0.8 μM), and SspB2 (0.3 μM) in PD buffer plus 200 mM KCl and ATP regenerating system. Curve fitting for the competitive inhibition assays were performed using the Scientist program (MicroMath Scientific Software, Inc.).
A priori, there are several steps in the degradation pathway that could be inhibited by the selected cyclic peptides: binding of the substrate-SspB complex to ClpXP, ATPase activity of ClpX, and hydrolysis of the peptide bond by ClpP. Molecules that block the binding of substrate to SspB should not be inhibitors of proteolysis by ClpXP, because ClpXP will degrade tmRNA-tagged substrates in the absence of SspB. To determine if the inhibitors act through SspB, the kinetic assays were repeated in the absence of this proteolytic adaptor.

ClpXP [2] = target: T1, ClpXP; assay: biochemical; type: biochemical, E. coli; conditions: for Ki: purified peptides and E. coli proteins, GFP-tag; for Ki / mode of inhibition of GFP-tag degradation: SspB present
Method: In vitro proteolysis assays: Proteolysis of GFP-tag was performed using a continuous fluorescence assay essentially as previously described (Levchenko et al. 2000, Science 289: 2354-2356). Briefly, loss of GFP fluorescence was monitored at 507 nm after excitation at 395 nm at 30° C. using a Hitachi F-2000 Fluorescence Spectrophotometer in buffer R (25 mM HEPES-KOH (pH 7.6), 5 mM MgCl2, 50 mM KCl, 0.032% NP-40, 10% glycerol, and an ATP regeneration system containing 4 mM ATP (pH 7), 16 mM creatine phosphate and 0.32 mg/ml creatine kinase). Typically, reactions contained […], 0.3 μM ClpP14, and equimolar concentrations (0.2 μM-2.0 μM) GFP-tag and SspB. Degradation of GFP-tag protein was confirmed by SDS-PAGE assays. To examine inhibition of GFP-tag proteolysis, peptides were incubated with ClpXP in reaction buffer for 5 min prior to the addition of GFP-tag. Plots of fluorescence versus time were fit with a single exponential function to determine the initial rate of proteolysis. Kinetic parameters were estimated using Eadie-Hofstee plots.
Proteolysis of GFP-tag in the presence of ClpXP and SspB was monitored by loss of GFP fluorescence in a continuous fluorometric assay. In the absence of cyclic peptide, GFP-tag was degraded with kinetic parameters kcat=[…], KM=0.74±0.04 μM. […] Likewise, no degradation was observed when ClpX or ClpP were omitted from the reaction.

ClpXP [3] = target: T1, ClpXP; assay: ClpXP degradation of GFP-tag in the presence of SspB, continuous fluorimetric assay (Examples 1-2); type: biochemical, E. coli; conditions: GFP-tag degradation by ClpXP
Method: as §1
Characterization of ClpXP inhibitors in vitro: Two of the selected cyclic peptides were synthesized in vitro to examine their effects on enzymatic assays. Peptides with the sequence SGWRVQGPL (SEQ ID NO: 1) and SGSKGVLPL (SEQ ID NO: 2) were chemically synthesized in the linear form, circularized, and purified by HPLC. The effects of these peptides on the activity of purified ClpXP were determined in vitro using a continuous fluorimetric assay. GFP-tag, SspB, ClpX and ClpP were each purified from over-expressing strains of E. coli, and degradation of GFP-tag was monitored by loss of fluorescence. In reactions containing all components, GFP-tag was degraded with kinetic parameters kcat=1.79±0.08 min−1, KM=0.74±0.04, similar to the previously published values of 1.44 min^−1 and 0.96 μM. […] For both cyclic peptides, inhibition of ClpXP was reversible, as no inhibition was observed when ClpXP was incubated with peptide at concentrations above the Kr, and dialyzed to remove unbound peptide before addition of enzyme to the reaction. The linear versions of SGSKGVLPL (SEQ ID NO: 2) and SGWRVQGPL (SEQ ID NO: 1) had Kb, values >1 mM (Table 4), so the cyclic architecture is likely to be important for inhibition.

C. crescentus [4] = type: cell-based, Caulobacter crescentus; conditions: 14 h
Method: Antibacterial activity assays: To measure the effects of peptides on bacterial growth, cultures of C. crescentus were diluted to OD600=0.001, peptide was added at various concentrations, the cultures were incubated at 30° C. for 14 h, and the MIC was determined as the lowest concentration of peptide that prevented growth. To determine the MBC, each culture was diluted 1:100 in PYE and 10 μl of the diluted culture was spread onto PYE agar plates, incubated at 30° C. overnight, and the number of colonies on each plate was counted. The MBC was assigned as the concentration of peptide that reduced the number of colonies by 99.9% compared to cultures with no inhibitor.

C. crescentus [5] = type: cell-based, Caulobacter crescentus
Method: Antibacterial activity: The peptides recovered from the selection were tested for antibacterial activity by incubating a 1:1,000 diluted saturated culture with the peptide overnight at room temperature. For each peptide a series of concentrations were tested. The mix was then plated, and the colonies were counted after a period incubation at 30° for C. crescentus or 37° C. for B. subtilis. For C. crescentus, PYE liquid media were incubated overnight at 30° C. at 250 rpm, and PYE plates were incubated for 3 days at 30° C. For B. subtilis, LB liquid media and plates were incubated overnight at 37° C. […]
Antibacterial activity of cyclic peptide inhibitors: Because ClpXP is essential in C. crescentus, we examined whether the inhibitory peptides have any effect when added exogenously to growing cultures. […] ClpXP is not essential in Bacillus subtilis, but mutants lacking ClpXP activity have growth and sporulation defects. […] No killing of E. coli or the related γ-proteobacteria Shigella flexneri and Vibrio cholera was observed. It remains to be determined if the selected cyclic peptides are effective against pathogenic bacterial that require the tmRNA-ClpXP pathway.

ClpXP [6] = target: T1, ClpXP; assay: ClpXP degradation of λO protein (Example 1); type: biochemical, E. coli; conditions: concentrations near or 10-fold above the KI for GFP-tag
Method: The differing effects of SspB on inhibition indicate that inhibitors for two different steps in the ClpXP degradation pathway were obtained from the genetic screen. To confirm the different specificities of these two inhibitors, the effects on ClpXP degradation of a substrate unrelated to tmRNA tagged proteins was assayed. Because ClpXP can recognize at least 5 different protein sequences as substrate determinants, it has been proposed that there are several substrate binding sites on the protease. Inhibitors that block one site of interaction are expected to affect degradation of only the substrates that bind at that site. Conversely, inhibitors that block catalysis or obstruct a binding site required by all substrates should affect degradation of any ClpXP substrate.

[7] = tested on: GFP-tag degradation by ClpXP; assay: In vivo screen: GFP-tag reporter fluorescence in E. coli producing the cyclic peptide from a SICLOPPS plasmid, epifluorescence microscopy (Example 3); type: cell-based
Method: Screen for inhibitors of the tmRNA pathway: E. coli BW7786 cells containing the GFP-tag reporter and the SICLOPPS library were grown in LB broth with 30 μg/ml chloramphenicol, 100 μg/ml ampicillin, and 0.0002% arabinose at 37° C. to OD600=0.3. IPTG was added to a final concentration of 1 mM, and the culture was grown for 3 hours. Cells were sorted by fluorescence activated cell sorting (FACS) using a Beckman Coulter Elite cell sorter with Autoclone to isolate cells with GFP fluorescence, and selected cells were deposited on agar plates for clonal growth. Cells from each colony were grown in liquid culture as described above and examined by epifluorescence microscopy. The fluorescence intensity and the number of cells with fluorescence above background were scored using ImagePro software (MediaCybernetics). SICLOPPS plasmid DNA was prepared from selected clones and the region encoding the cyclic peptide was sequenced. Peptide sequences were obtained from conceptual translation of the DNA sequences.
Approximately 0.014% of the population had fluorescence over the background level, and 96 of these cells were isolated for clonal growth and characterization. To eliminate any clones that resulted from sorting errors or spurious accumulation of GFP, cells from each colony were cultured and examined by epifluorescence microscopy.

GFP-tag reporter = GFP-tag reporter fluorescence in cells expressing SGW+5 SICLOPPS clones, epifluorescence microscopy (Example 1); type: cell-based, E. coli
From the text: Clonal populations are obtained by spotting the cells with high fluorescence on agar plates, and cells from each colony are screened by epi-fluorescence microscopy for fluorescence intensity. SICLOPPS plasmids from clones that pass the microscopy screen were isolated and sequenced to identify the cyclic peptide that is produced in that clone.
A SICLOPPS library was constructed in which the cyclic peptide contains three constant amino acids, SGW, followed by five random amino acids encoded by NNS codons. This library was introduced into cells containing the GFP-tag reporter, and the expression of the reporter and cyclic peptide were induced. Approximately 690,000 cells were sorted by FACS and the brightest 50 were isolated. These 50 clones were grown individually in fresh medium, the expression of reporter and cyclic peptide was induced, and the culture was observed by epifluorescence microscopy. Two clones produced cultures in which nearly 100% of the cells were highly fluorescent.

[8] = SspB present, read-out: KI value +SspB

Compound	Ki (ClpXP [1]) [mM]	Ki (ClpXP [2]) [mM]	MBC (C. crescentus [4]) [µM]	MIC (C. crescentus [4]) [µM]	MIC (C. crescentus [5]) [µM]	inhibition of ClpXP proteolysis of GFP-tag in vitro (ClpXP [2]; at the concentrations tested)	also measured
CSCC[C@@H]1NC(=O)[C@H](Cc2c[nH]c3ccccc23)NC(=O)[C@H](CCCCN)NC(=O)[C@H](Cc2ccc(O)cc2)NC(=O)[C@@H]2CCCN2C(=O)[C@H](Cc2c[nH]c3ccccc23)NC(=O)CNC(=O)[C@H](CO)NC1=O [Con62, SGWPYKWM, reference compound] (HELM PEPTIDE1{G.W.P.Y.K.W.M.S}$PEPTIDE1,PEPTIDE1,1:R1-8:R2$$$V2.0)	> 1	> 1	>600	>600	>250		Ki (ClpXP [3]; [8]): > 1 mM
CC(C)C[C@@H]1NC(=O)[C@@H]2CCCN2C(=O)[C@H](CC(C)C)NC(=O)[C@H](C(C)C)NC(=O)CNC(=O)[C@H](CCCCN)NC(=O)[C@H](CO)NC(=O)CNC(=O)[C@H](CO)NC1=O [ICP1, SGSKGVLPL] (HELM PEPTIDE1{G.S.K.G.V.L.P.L.S}$PEPTIDE1,PEPTIDE1,1:R1-9:R2$$$V2.0)					62.2 (≈ 52.2 µg/mL)	inhibited	effect on degradation of λO protein by ClpXP (ClpXP [6]): inhibited; inhibition of GFP-tag degradation by ClpXP in the absence of SspB (ClpXP [1]): inhibited; mode of inhibition of GFP-tag degradation (ClpXP [2]): competitive inhibitors
CC(C)C[C@@H]1NC(=O)[C@@H]2CCCN2C(=O)CNC(=O)[C@H](CCC(N)=O)NC(=O)[C@H](C(C)C)NC(=O)[C@H](CCCNC(=N)N)NC(=O)[C@H](Cc2c[nH]c3ccccc23)NC(=O)CNC(=O)[C@H](CO)NC1=O [ICP2, SGWRVQGPL] (HELM PEPTIDE1{G.P.L.S.G.W.R.V.Q}$PEPTIDE1,PEPTIDE1,1:R1-9:R2$$$V2.0)	> 1				62.2 (≈ 61 µg/mL)	inhibited	effect on degradation of λO protein by ClpXP (ClpXP [6]): no effect; inhibition of GFP-tag degradation by ClpXP in the absence of SspB (ClpXP [1]): did not inhibit; KI in the absence of SspB, fold higher (ClpXP [1]; no SspB versus +SspB): at least 10 fold; mode of inhibition of GFP-tag degradation (ClpXP [2]): competitive inhibitors
CSCC[C@@H]1NC(=O)CNC(=O)[C@H](CCCNC(=N)N)NC(=O)[C@H](CCCNC(=N)N)NC(=O)[C@H](Cc2c[nH]cn2)NC(=O)[C@H](Cc2c[nH]c3ccccc23)NC(=O)CNC(=O)[C@H](CO)NC1=O [IXP2, SGWHRRGM] (HELM PEPTIDE1{G.M.S.G.W.H.R.R}$PEPTIDE1,PEPTIDE1,1:R1-8:R2$$$V2.0)		> 1	>600	430 ± 40 (≈ 416 µg/mL)		did not inhibit	% fluorescent cells ([7]; cells with fluorescence at least 0.5 times that of ΔclpX cells producing GFP-tag): 30-40%; GFP-tag fluorescence / inhibition in vivo ([7]; compared with ΔclpX strain): indistinguishable from the ΔclpX strain; average fluorescent intensity relative to cultures expressing ICP1 or ICP2 (GFP-tag reporter): more than twice; cells highly fluorescent (GFP-tag reporter; induced culture): ~100%
H-SGSKGVLPL-OH [linICP1, SGSKGVLPL]	> 1.5				>250		inhibition of ClpXP in vitro at concentrations up to 1 mM (ClpXP [2]): little inhibition; Ki (ClpXP [3]; [8]): > 1.5 mM; Ki (ClpXP [3]; read-out: Kb, values (KI) of linear versions): > 1 mM
H-SGWYGRRH-OH [linear IXP1, SGWYGRRH]		> 1	481 ± 38	385 ± 28			inhibition of ClpXP in vitro at concentrations up to 1 mM (ClpXP [2]): little inhibition
SGGRGGRPL (also: cyclic, mode of cyclisation not given here) [IXP5]							inhibition of ClpXP proteolysis of GFP-tag in vitro (ClpXP [2]): did not inhibit
SGWHRRGM [linear IXP2, SGWHRRGM]			376 ± 37	304 ± 27			
SGWRVQGPL [linICP2, SGWRVQGPL]					>250		

From patent US10597735B2, “Antibacterial and plasmid elimination agents” (priority 2006, dated 2020)
